Source: patent US4841051A, “Phenylpiperazine derivatives” (Nippon Kayaku Kabushiki Kaisha, priority 1985, dated 1989)

Experiments:
[1] = biological target: T1, isolated vas deferens of a rat (Rattus norvegicus, UniProt P43140); assay: Action on isolated vas deferens of a rat (antagonism against noradrenaline); design: species or system SD male rat; conditions: 3 minutes pretreatment, 32° C., read-out: pA2 (converted)
T1 construct: The vas deferens was isolated from SD male rats and cut into strips about 20 mm long; from tissue; host or cells: vas deferens of SD male rats
T1 sequence (P43140 1-466): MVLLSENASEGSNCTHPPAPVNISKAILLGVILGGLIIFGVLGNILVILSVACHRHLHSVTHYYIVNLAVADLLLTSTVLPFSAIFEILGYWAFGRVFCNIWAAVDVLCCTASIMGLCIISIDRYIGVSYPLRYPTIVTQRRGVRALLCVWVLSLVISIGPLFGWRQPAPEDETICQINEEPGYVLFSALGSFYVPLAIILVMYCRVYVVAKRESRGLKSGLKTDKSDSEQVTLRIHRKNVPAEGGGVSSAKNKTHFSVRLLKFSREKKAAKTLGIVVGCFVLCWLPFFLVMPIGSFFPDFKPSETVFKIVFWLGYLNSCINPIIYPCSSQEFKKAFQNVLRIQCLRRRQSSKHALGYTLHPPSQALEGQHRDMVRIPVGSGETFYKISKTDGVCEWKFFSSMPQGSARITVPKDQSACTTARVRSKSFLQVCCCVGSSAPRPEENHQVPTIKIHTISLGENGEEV
Experimental: The vas deferens was isolated from SD male rats and cut into strips about 20 mm long. The both ends of the strip were bounded with two threads respectively. The thread attached to one end of the strips was fixed in a 10-ml organ bath and the thread attached to other end was connected to an isotonic transducer. The bath was filled with Tyrode's solution of 32° C. comprising a solution of 8.0 g of NaCl, 0.2 g of KCl, 0.2 g of CaCl2, 0.1 g of MgCl2, 0.05 g of NaH2 PO4, 1.0 g of NaHCO3 and 1.0 g of glucose in 1 l of deionized water. A gas mixture comprising 95% of oxygen and 5% of carbon dioxide was bubbled into the bath. Resting tension of 0.5 g was loaded. Noradrenaline was treated accumulatively in the bath to obtain a consistent dose-response curve. After the pretreatment of the preparation with a sample compound for 3 minutes, another dose-response curve of noradrenaline was obtained to determine the activities of the compound. The strength of antagonism against noradrenaline was determined from these dose-response curves in terms of pA2 value.

SHR rat = assay: Hypotensive activity, SHR rat; type: in vivo; conditions: 3 μg/kg, injected into femoral vein, anesthetized SHR rat
Experimental: (§1) The experiment was carried out using an SHR or SD male rat under anesthesia. The blood pressure was measured by inserting a polyethylene tube (a product of Clay Adams Co., Ltd.: PE-50) into its carotid arteries and using a pressure transducer (a product of Century Technology Company: CP-01) and continuously recorded on a recorder (a product of Nippon Koden Co., Ltd.). Sample compounds were each injected by a polyethylene tube (a product of Clay Adams Co., Ltd.: PE-10) inserted into the femoral vein of the rat in an amount of 3 μg/kg for an SHR rat or 10 μg/kg for an SD rat to examine the maximum hypotensive effect on systolic pressure.

[2] = Acute toxicity, intraperitoneal; conditions: mouse, in vivo, ip, ICR male mice, up-and-down method or van der Welden method
Experimental: The acute toxicity due to intraperitoneal administration of a sample compound was examined by using ICR male mice (CRJ-ICR: weight of 29.5 to 52.3 g). Each sample compound was administered to from ten to thirty mice. The mice were observed until the symptom got well again. The LD50 values were determined by the up-and-down method or by van der Welden method.

SD rat = assay: Hypotensive activity, SD rat; type: in vivo, SD male rat; conditions: 10 μg/kg, injected into femoral vein, anesthetized SD rat
Experimental: as §1

α1 -receptor = assay: α1 -blocking activity (inhibition of blood pressure increase due to phenylephrine); type: in vivo; conditions: 10 μg/kg, femoral vein; phenylephrine 2 μg/kg i.v.; anesthetized SD male rat
Experimental: The blood pressure (a) of an SD male rat of 7 to 8 weeks of age was measured and 2 μg/kg of phenylephrine was administered to the rat by intravenous injection. Then the maximum response of blood pressure (b) was measured. 10 μg/kg of a sample compound was administered to the rats, followed by the intravenous injection of 2 μg/kg of phenylephrine. Then, the maximum response of blood pressure (c) was measured. The depression (d) of blood pressure increased due to phenylephrine was calculated by the following equation: [formula]
The animal was anesthetized by intraperitoneal administration of 40 mg/kg of nembutal and the anesthetic depth was kept by intravenous drip infusion of 15 mg/kg/hr of pentobarbital sodium. The blood pressure was measured by inserting a polyethylene tube (a product of Clay Adams: PE-50) and using a transducer (a product of Century Technology Company: CP-01) and continuously recorded on a pen oscillograph (a product of Nippon Koden Co., Ltd. WI-6416). Each sample compound was injected by a polyethylene tube (a product of Clay Adams Co., Ltd.: PE-10) inserted into the femoral vein.

| Compound | Kb [1] | maximum hypotensive effect on systolic pressure, SHR rat (SHR rat) | LD50 [2] | maximum hypotensive effect on systolic pressure, SD rat (SD rat) | Percentage of inhibition of blood pressure increase (α1 -receptor) |
| --- | --- | --- | --- | --- | --- |
| CCOc1ccccc1N1CCN(CCCCn2c(=O)n(-c3ccccc3)c(=O)c3c(C)cc(C)nc32)CC1 [Compound 10, 3-Phenyl-5,7-dimethyl-1-[4-[4-(2-ethoxyphenyl)-1-piperazinyl]butyl]pyrido[2,3-d]pyrimidine-2,4(1H,3H)-dione] | 7.94 nM | ++ (pressure drop of 11 to 20 mmHg) | 328 mg/kg | – | – |
| CCOc1ccccc1N1CCN(CCCCn2cnc3ccccc3c2=O)CC1 [Compound 5, 3-{4-[4-(2-Ethoxyphenyl)-1-piperazinyl]butyl}-4(3H)-quinazolone] | 0.398 nM | +++ (pressure drop of 21 to 30 mmHg) | 150 mg/kg | 57.5 mmHg | 89.6% |
| CCOc1ccccc1N1CCN(CCn2cnc3ccccc3c2=O)CC1 [Compound 1, 3-[2-[4-(2-Ethoxyphenyl)-1-piperazinyl]-ethyl]-4(3H)-quinazolone] | 0.501 nM | +++ (pressure drop of 21 to 30 mmHg) | 400 mg/kg | – | – |
| CCOc1ccccc1N1CCN(CCn2c(C)nc3ccccc3c2=O)CC1 [Compound 3] | 3.16 nM | +++ (pressure drop of 21 to 30 mmHg) | 119 mg/kg | – | – |
| CCOc1ccccc1N1CCN(CCCn2c(C)nc3ccccc3c2=O)CC1 [Compound 4] | 10 nM | ++ (pressure drop of 11 to 20 mmHg) | 152 mg/kg | – | – |
| CCOc1ccccc1N1CCN(CCCn2c(C)nc3nc(C)cc(C)c3c2=O)CC1 [Compound 6, 2,5,7-Trimethyl-3-[3-[4-(2-ethoxyphenyl)-1-piperazinyl]-propyl]pyrido[2,3-d]pyrimidin-4(3H)-one] | 2.51 nM | ++ (pressure drop of 11 to 20 mmHg) | 128 mg/kg | – | – |
| CCOc1ccccc1N1CCN(CCCCn2c(C)nc3nc(C)cc(C)c3c2=O)CC1 [Compound 7] | 5.01 nM | ++ (pressure drop of 11 to 20 mmHg) | 137 mg/kg | – | – |
| CCOc1ccccc1N1CCN(CCn2c(C)nc3nc(C)cc(C)c3c2=O)CC1 [Compound 8] | 6.31 nM | ++ (pressure drop of 11 to 20 mmHg) | 207 mg/kg | – | – |
